This is an account of results in patent US20260226493A1, “HERBICIDE RESISTANT PLANTS” (SYNGENTA CROP PROTECTION AG, priority 2023, published 2026).

What all share (experiment): BIO3-BIO1 mutant enzyme activity in the presence of herbicide, percentage inhibition (fluorometric DAPA assay)
What all share (assay type): biochemical
What all share (details): read-out: percentage inhibition

The target of test [1] is T1, Arabidopsis thaliana BIO3-BIO1 (BioDA) mutants (Arabidopsis thaliana, UniProt B0F481, W392G).
T1 construct: with the predicted N-terminal mitochondrial transit peptide removed; 6xHis-tag (N); thrombin cleavage site (N); made in house; host or cells: E. coli BL21 (DE3) bioA
T1 sequence (B0F481 23-833 W392G): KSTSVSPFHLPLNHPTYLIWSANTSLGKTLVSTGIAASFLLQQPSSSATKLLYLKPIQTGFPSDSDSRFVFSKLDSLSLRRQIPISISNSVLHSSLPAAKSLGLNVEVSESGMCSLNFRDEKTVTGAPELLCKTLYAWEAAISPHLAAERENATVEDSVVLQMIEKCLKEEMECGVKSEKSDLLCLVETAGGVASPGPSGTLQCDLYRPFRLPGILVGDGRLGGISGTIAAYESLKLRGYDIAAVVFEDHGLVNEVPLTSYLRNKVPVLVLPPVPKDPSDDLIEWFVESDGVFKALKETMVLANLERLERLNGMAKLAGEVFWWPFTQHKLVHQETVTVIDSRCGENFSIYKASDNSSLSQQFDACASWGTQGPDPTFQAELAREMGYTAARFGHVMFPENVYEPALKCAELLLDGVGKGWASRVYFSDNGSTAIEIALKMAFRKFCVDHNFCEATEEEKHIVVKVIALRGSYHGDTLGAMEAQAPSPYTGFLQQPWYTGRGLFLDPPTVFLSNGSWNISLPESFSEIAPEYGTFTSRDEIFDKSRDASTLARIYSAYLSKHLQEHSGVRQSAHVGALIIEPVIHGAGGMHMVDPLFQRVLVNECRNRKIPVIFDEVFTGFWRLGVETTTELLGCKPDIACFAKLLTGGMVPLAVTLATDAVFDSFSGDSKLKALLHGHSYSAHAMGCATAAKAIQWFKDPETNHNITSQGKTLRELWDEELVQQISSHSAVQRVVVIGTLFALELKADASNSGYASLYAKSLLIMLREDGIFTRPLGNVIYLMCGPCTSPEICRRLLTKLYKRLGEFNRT
The method in brief: (§1)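 Percentage inhibition compares activity at one of three herbicide concentrations against DMSO, from o-phthalaldehyde-derivatised DAPA fluorescence (ex 410, em 470 nm). Purified N-His BIO3-BIO1 variants (50 nM, E. coli-expressed) saw herbicide 10 min at 20 °C in pH 8.6 EPPS buffer, then 20 μM KAPA plus 100 μM spermidine for 75 min at 20 °C.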

The target of test [2] is T2, Arabidopsis thaliana BIO3-BIO1 (BioDA) mutants (Arabidopsis thaliana, UniProt B0F481, S509G).
T2 construct: with the predicted N-terminal mitochondrial transit peptide removed; 6xHis-tag (N); thrombin cleavage site (N); made in house; host or cells: E. coli BL21 (DE3) bioA
T2 sequence (B0F481 23-833 S509G): as the sequence (B0F481 23-833 W392G) above, with G370W, S487G counted along it
The method, boiled down:
as §1

Test [3] deals with T3, Arabidopsis thaliana BIO3-BIO1 (BioDA) mutants (Arabidopsis thaliana, UniProt B0F481, Y511I).
T3 construct: with the predicted N-terminal mitochondrial transit peptide removed; 6xHis-tag (N); thrombin cleavage site (N); made in house; host or cells: E. coli BL21 (DE3) bioA
T3 sequence (B0F481 23-833 Y511I): as the sequence (B0F481 23-833 W392G) above, with G370W, Y489I counted along it
The method, boiled down:
as §1

For test [4], the target named is T4, Arabidopsis thaliana BIO3-BIO1 (BioDA) mutants (Arabidopsis thaliana, UniProt B0F481, W392M).
T4 construct: with the predicted N-terminal mitochondrial transit peptide removed; 6xHis-tag (N); thrombin cleavage site (N); made in house; host or cells: E. coli BL21 (DE3) bioA
T4 sequence (B0F481 23-833 W392M): as the sequence (B0F481 23-833 W392G) above, with G370M counted along it
The method in brief:
as §1

Test [5] has as its target T5, Arabidopsis thaliana BIO3-BIO1 (BioDA) mutants (Arabidopsis thaliana, UniProt B0F481, Y511E).
T5 construct: with the predicted N-terminal mitochondrial transit peptide removed; 6xHis-tag (N); thrombin cleavage site (N); made in house; host or cells: E. coli BL21 (DE3) bioA
The method in brief:
as §1

The target of test [6] is T6, Arabidopsis thaliana BIO3-BIO1 (BioDA) mutants (Arabidopsis thaliana, UniProt B0F481, P510L).
T6 construct: with the predicted N-terminal mitochondrial transit peptide removed; 6xHis-tag (N); thrombin cleavage site (N); made in house; host or cells: E. coli BL21 (DE3) bioA
T6 sequence (B0F481 23-833 P510L): as the sequence (B0F481 23-833 W392G) above, with G370W, P488L counted along it
The method, boiled down:
as §1

Test [7] addresses T7, Arabidopsis thaliana BIO3-BIO1 (BioDA) mutants (Arabidopsis thaliana, UniProt B0F481, S509Q).
T7 construct: with the predicted N-terminal mitochondrial transit peptide removed; 6xHis-tag (N); thrombin cleavage site (N); made in house; host or cells: E. coli BL21 (DE3) bioA
The method in brief: as §1

For test [8], the target named is T8, Arabidopsis thaliana BIO3-BIO1 (BioDA) mutants (Arabidopsis thaliana, UniProt B0F481, S509W).
T8 construct: with the predicted N-terminal mitochondrial transit peptide removed; 6xHis-tag (N); thrombin cleavage site (N); made in house; host or cells: E. coli BL21 (DE3) bioA
T8 sequence (B0F481 23-833 S509W): as the sequence (B0F481 23-833 W392G) above, with G370W, S487W counted along it
The method, boiled down:
as §1

Test [9] concerns the target T9, Arabidopsis thaliana BIO3-BIO1 (BioDA) mutants (Arabidopsis thaliana, UniProt B0F481, Q517F).
T9 construct: with the predicted N-terminal mitochondrial transit peptide removed; 6xHis-tag (N); thrombin cleavage site (N); made in house; host or cells: E. coli BL21 (DE3) bioA
The method in brief: as §1

Test [10] has as its target T10, Arabidopsis thaliana BIO3-BIO1 (BioDA) mutants (Arabidopsis thaliana, UniProt B0F481, G700S).
T10 construct: with the predicted N-terminal mitochondrial transit peptide removed; 6xHis-tag (N); thrombin cleavage site (N); made in house; host or cells: E. coli BL21 (DE3) bioA
The method in brief:
as §1

Test [11] concerns the target T11, Arabidopsis thaliana BIO3-BIO1 (BioDA) mutants (Arabidopsis thaliana, UniProt B0F481, S704P).
T11 construct: with the predicted N-terminal mitochondrial transit peptide removed; 6xHis-tag (N); thrombin cleavage site (N); made in house; host or cells: E. coli BL21 (DE3) bioA
The method, boiled down:
as §1

The target of test [12] is T12, Arabidopsis thaliana BIO3-BIO1 (BioDA) mutants (Arabidopsis thaliana, UniProt B0F481, S509V).
T12 construct: with the predicted N-terminal mitochondrial transit peptide removed; 6xHis-tag (N); thrombin cleavage site (N); made in house; host or cells: E. coli BL21 (DE3) bioA
T12 sequence (B0F481 23-833 S509V): as the sequence (B0F481 23-833 W392G) above, with G370W, S487V counted along it
The method, boiled down: as §1

SMILES strings stand for the structures.

T7 sequence (B0F481 23-833 S509Q): as the sequence (B0F481 23-833 W392G) above, with G370W, S487Q counted along it
T9 sequence (B0F481 23-833 Q517F): as the sequence (B0F481 23-833 W392G) above, with G370W, Q495F counted along it
T10 sequence (B0F481 23-833 G700S): as the sequence (B0F481 23-833 W392G) above, with G370W, G678S counted along it
T5 sequence (B0F481 23-833 Y511E): as the sequence (B0F481 23-833 W392G) above, with G370W, Y489E counted along it
T11 sequence (B0F481 23-833 S704P): as the sequence (B0F481 23-833 W392G) above, with G370W, S682P counted along it

On to `CCOC(=O)c1nn(-c2ccc3c(c2)OC(F)(F)C(F)(F)O3)c2cccc(C(C)=O)c2c1=O` [Compound A, ethyl 5-acetyl-4-oxo-1-(2,2,3,3-tetrafluoro-1,4-benzodioxin-6-yl)cinnoline-3-carboxylate], for which the inhibition (in general, the relative decrease from the control value, in per cent) at 1 µM stood at 56% in test [1]; 36% in test [2]; 17% in test [3]; 14% in test [4]; 0% in test [5]; 82% in test [6]. For the same molecule, the inhibition at 1 µM in [7] came out at 8%; in test [8] it was 0%; in test [9], 20%; in [10], 0%; in [11] it was 56%; in test [12] it was 6%.

`CCn1c(C)c(-c2ccc(F)cc2F)c(=O)c(C(=O)O)c1-c1ccc(Cl)c(Cl)c1` [Compound C, 2-(3,4-dichlorophenyl)-5-(2,4-difluorophenyl)-1-ethyl-6-methyl-4-oxo-pyridine-3-carboxylic acid]: the inhibition at 0.2 µM in test [1] was found to be 0%; in [2], 20%; in test [3], 36%; in [4] it was 10%; in test [5] it was 27%; in [6], 67%. In addition, the inhibition at 0.2 µM came to 23% in [7]; 14% in [8]; 29% in test [9]; 9% in test [10]; 1% in [11]; 17% in [12]. Also, the inhibition at 1 µM in test [1] turned out to be 20%; in test [2], 53%; in test [3], 93%; in [4] it was 30%; in [5], 74%; in test [6] it was 84%. The inhibition at 1 µM in test [7] worked out at 82%; in [8], 92%; in test [9], 55%; in test [10], 0%; in [11], 23%; in test [12] it was 30%. Also, the inhibition at 5 µM in [1] worked out at 69%; in [2], 75%; in test [3], 100%; in test [4], 56%; in test [5], 96%; in test [6], 96%. Besides, the inhibition at 5 µM in test [7] amounted to 99%; in [8], 103%; in test [9] it was 85%; in test [10], 9%; in [11] it was 60%; in test [12] it was 94%.

Take `CCn1c(Cn2ccc(C(F)(F)F)n2)cc(=O)c(C(=O)O)c1-c1ccc(Cl)c(Cl)c1` [Compound L, 2-(3,4-dichlorophenyl)-1-ethyl-4-oxo-6-[[3-(trifluoromethyl)pyrazol-1-yl]methyl]pyridine-3-carboxylic acid]: in test [6], the inhibition at 0.01 µM worked out at 35%, the inhibition at 0.075 µM was 88% and the inhibition at 0.5 µM was determined as 97%. In test [10], the inhibition at 0.01 µM is 9%, the inhibition at 0.075 µM came to 3% and the inhibition at 0.5 µM amounted to 3%.

Regarding `CCn1c(-c2ccc(Cl)c(Cl)c2)c(C(=O)O)c(=O)c2cc(F)ccc21` [Compound M, 2-(3,4-dichlorophenyl)-1-ethyl-6-fluoro-4-oxo-quinoline-3-carboxylic acid], the inhibition at 0.2 µM in [1] was 0%; in [2] it was 28%; in [3] it was 21%; in test [4], 0%; in [5] it was 29%; in test [6] it was 54%. In addition, the inhibition at 0.2 µM worked out at 23% in [7]; 0% in test [8]; 0% in test [9]; 8% in test [10]; 0% in test [11]; 22% in test [12]. For the same molecule, the inhibition at 1 µM was 7% in [1]; 47% in test [2]; 81% in test [3]; 0% in test [4]; 74% in [5]; 77% in test [6]. The inhibition at 1 µM stood at 76% in [7]; 60% in test [8]; 29% in test [9]; 0% in test [10]; 16% in test [11]; 26% in test [12]. Also, the inhibition at 5 µM stood at 12% in test [1]; 71% in test [2]; 96% in [3]; 22% in test [4]; 95% in test [5]; 94% in [6]. Further, the inhibition at 5 µM is 96% in test [7]; 95% in [8]; 70% in test [9]; 9% in [10]; 47% in [11]; 88% in test [12].
